In US6262031A, “Method for treating pediculosis capitisinfestation” (Merck & Co., Inc., priority 2000, dated 2001):

What was measured:
[1] = tested on: nematodes; details: cited from earlier work
[2] = tested on: adult worm of any species of Filarioidea; details: causing lymphatic filariasis, tropical pulmonary eosinophilia syndrome, lymphadenitis or lymphangitis; cited from earlier work
[3] = tested on: mammalian ligand-gated chloride channels; details: cited from earlier work
[4] = tested on: head lice; experiment: Example 2: comparison of head lice treatment using orally administered ivermectin at cumulative doses of 200, 400 and 600 ug/kg; assay type: in vivo, human
Description: On Days 1, 4, 8 and 15, patients had their scalp inspected for viable nits and their hair shampooed (prior to dosing, if the day for scalp inspection was also a "dosing" day). The rinse water was filtered through a towel that enabled the number of lice (for each stage of nymphs and/or adult lice) to be recorded. An independent qualitative assessment was performed on a subset of towels. All patients were also seen on Days 5 and 9 for the assessment of clinical adverse experiences.
The primary analysis was based on treatment outcome (success or failure) on Day 15. "treatment success" is defined to mean that no live lice were observed on Day 15. "Reinfestation" corresponds to the condition where the patient, previously free of lice (including any stage nymphs and/or adult lice) on Day 8, is infested thereafter with adult lice. "Reinfestation" also corresponds to the condition where the patient, previously free of lice and nits, is infested thereafter with adult lice and first and second stage nymphs. The percent of treatment success was calculated.
(§1) Three groups of patients were treated.

[5] = tested on: Strongyloides stercoralis; details: cited from earlier work
[6] = tested on: Onchocerca volvulus; details: cited from earlier work
[7] = Example 7: ivermectin plasma levels in fasted and fed state; assay type: in vivo, human; details: 30 mg oral; high fat meal vs fasting, three weeks apart
[8] = tested on: glutamate-gated chloride ion channels; details: invertebrate nerve and muscle cells; cited from earlier work
[9] = tested on: Onchocerca volvulus; details: single oral dose, cited from earlier work
[10] = ivermectin; cited from earlier work
[11] = tested on: head lice; details: single oral dose 100-200 ug/kg; cited from earlier work
[12] = tested on: head lice; details: single topical application; cited from earlier work
[13] = tested on: head lice; experiment: Example 8: comparison of head lice treatment using orally administered ivermectin at cumulative doses of 800, 1200 and 600 ug/kg and shampoo cleaning; assay type: in vivo, human; details: for Treatment success (%) Day 15: washing shampoo the day after each dose
Description: On Days 1, 4 and 8, patients had their scalp inspected for nits and lice. Their hair was shampooed on Days 2, 5, 9, and 15. The rinse water was filtered through a towel that enabled the number of lice (for each stage of nymph and/or adult lice) to be recorded. An independent qualitative assessment was performed on those towels with live lice at Day 15. Clinical adverse experiences were collected at all visits.
The primary analysis was based on treatment outcome (success or failure) on Day 15. "Treatment success" is defined to mean that no live lice were observed on Day 15, or, if lice were present on Day 15, that they were the result of reinfestation. "Reinfestation" corresponds to the condition where the patient, previously free of lice (including any stage nymphs and/or adult lice) on Day 9, is infested thereafter with adult lice. Patients who were reinfested were counted as successes. The percent of treatment success was calculated.
as §1

[14] = tested on: Pediculosis capitis; details: 200 ug/kg single oral dose, 26 patients; cited from earlier work
[15] = cited from earlier work

Substance: mixture containing at least 90% 5-O-demethyl-22,23-dihydroavermectin A1a and less than 10% 5-O-demethyl-25-de(1-methylpropyl)-22,23-dihyro-25-(1-methylethyl) avermectin A1a [ivermectin]
- activity against life-cycle stages of nematodes [1]: active against various life-cycle stages of many but not all nematodes
- activity against adult worm of any species of Filarioidea [2]: has not been shown to have any activity against adult worm
- affinity for mammalian ligand-gated chloride channels [3]: low affinity
- success rate, comparison of groups ([4]; 200 ug/kg doses on Days 1, 4 and 8): highest success rate
- Treatment success (%) Day 15 ([4]; Group 1: oral 200 ug/kg on Day 1, 29 patients): 52%
- Treatment success (%) Day 15 ([4]; Group 2: oral 200 ug/kg on Days 1 and 8, 28 patients): 68%
- Treatment success (%) Day 15 ([4]; Group 3: oral 200 ug/kg on Days 1, 4 and 8, 31 patients): 81%
- activity against Strongyloides stercoralis [5]: limited to the intestinal stages
- activity against the adult form ([6]; adult form): not against the adult form
- activity against tissue microfilariae ([6]; tissue microfilariae): active against the tissue microfilariae
- increase in bioavailability, fed vs fasted state [7]: 2.5 times
- binding affinity to glutamate-gated chloride ion channels [8]: selectively binds with high affinity
- effect of binding on cell membrane and parasite [8]: increase in the permeability of the cell membrane to chloride ions with hyperpolarization of the nerve or muscle cell, resulting in paralysis and death of the parasite
- dermal microfilarial density ([9]; after one month): near zero
- maintenance of low microfilarial level [9]: up to 12 months
- plasma half-life [10]: about 12 hours
- effect on head lice infestation [11]: significant, but not absolute, effect
- curative effect on head lice [12]: absolute curative effect
- Treatment success (%) Day 15 ([13]; Group 1: oral 400 ug/kg on Days 1 and 8, 57 patients): 98.2%
- Treatment success (%) Day 15 ([13]; Group 2: oral 400 ug/kg on Days 1, 4 and 8, 60 patients): 100%
- Treatment success (%) Day 15 ([13]; Group 3: oral 200 ug/kg on Days 1, 4 and 8, 57 patients): 100%
- success rates, comparison of groups ([13]; all three study groups, Day 15): comparable success rates
- effectiveness against head lice [14]: effectiveness of ivermectin 200 mcg/kg single dose against head lice
- overall incidences of adverse experiences ([15]; amicrofilaremic population, mass treatment programs): 1%
- laboratory abnormalities ([15]; studies of microfilaremic patients): eosinophilia, liver function abnormalities and hematuria
